The text below walks through data of patent US11339130B1 (Blade Therapeutics, Inc., priority 2016, dated 2022).

The structures appear in SMILES notation. Where two headings read alike, the source gives them in different places. Bounds are passed on as bounds.

For assay [1], the target named is T1, Human Calpain 1/NS1 (Homo sapiens, UniProt P07384).
T1 sequence (P07384 1-714): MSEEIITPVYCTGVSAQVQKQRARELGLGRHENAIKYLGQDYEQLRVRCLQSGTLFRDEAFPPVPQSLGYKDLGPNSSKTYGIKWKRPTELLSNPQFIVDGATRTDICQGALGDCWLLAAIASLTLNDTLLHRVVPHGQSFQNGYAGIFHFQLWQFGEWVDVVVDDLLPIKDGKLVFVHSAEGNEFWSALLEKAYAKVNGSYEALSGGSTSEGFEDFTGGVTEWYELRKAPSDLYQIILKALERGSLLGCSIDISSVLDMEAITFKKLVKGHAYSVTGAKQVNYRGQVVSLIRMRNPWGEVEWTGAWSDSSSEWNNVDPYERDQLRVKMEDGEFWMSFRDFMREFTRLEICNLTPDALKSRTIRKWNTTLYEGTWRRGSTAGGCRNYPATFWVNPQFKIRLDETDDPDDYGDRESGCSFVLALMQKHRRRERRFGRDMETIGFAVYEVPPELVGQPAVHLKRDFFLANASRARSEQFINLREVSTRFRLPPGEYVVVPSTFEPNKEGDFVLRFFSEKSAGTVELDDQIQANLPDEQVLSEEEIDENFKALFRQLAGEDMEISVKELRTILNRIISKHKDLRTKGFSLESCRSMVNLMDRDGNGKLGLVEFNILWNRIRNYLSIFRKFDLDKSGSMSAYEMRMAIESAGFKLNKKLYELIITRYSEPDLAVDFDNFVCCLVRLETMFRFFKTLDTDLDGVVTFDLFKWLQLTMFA
T1 sequence (P04632 1-268 partner): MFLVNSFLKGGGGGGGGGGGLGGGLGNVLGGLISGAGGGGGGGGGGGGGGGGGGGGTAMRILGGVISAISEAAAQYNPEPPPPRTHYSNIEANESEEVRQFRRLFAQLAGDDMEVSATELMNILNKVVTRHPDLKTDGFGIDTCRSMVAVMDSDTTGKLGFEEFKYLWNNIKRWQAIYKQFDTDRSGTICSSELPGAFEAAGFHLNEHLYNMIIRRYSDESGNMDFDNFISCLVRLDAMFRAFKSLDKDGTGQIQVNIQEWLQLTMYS
Briefly: Calpain inhibition continuous fluorescence (FRET) assay, Human Calpain 1/NS1. The assay is classed as biochemical. To be noted: read-out: Human Calpain 1/NS1 IC50. The essentials: (§1)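 Continuous FRET read (ex 490/em 520 nm, 10 min) of calpain 1, 2 or 9 cleaving an internally quenched 5-FAM peptide, triggered by substrate with CaCl2 after enzyme–inhibitor incubation at ambient 25 °C, pH 7.5 Tris/NaCl/DTT buffer. IC50 from initial rates (1-5 min) via 4-parameter fit.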

Assay [2] deals with Calpain activity in SH-SY5Y cells. Briefly: SH-SY5Y + AMC fluorescence assay (Suc-LLVY-AMC substrate). The assay is classed as cell-based. To be noted: read-out: SH-SY5Y + AMC IC50.
The subject of assay [3] is Calpain activity in SH-SY5Y cells (SBDP-150). Briefly: SH-SY5Y Spectrin western blot assay (SBDP-150 breakdown product, A23187-induced). The assay is classed as cell-based. Particulars: Homo sapiens, SH-SY5Y cells, read-out: SH-SY5Y Spectrin IC50. Background: In western blotting, separated proteins are transferred to a membrane and probed.
Assay [4] deals with T2, Human Calpain 2/NS1 (Homo sapiens, UniProt P17655).
T2 sequence (P17655 1-700): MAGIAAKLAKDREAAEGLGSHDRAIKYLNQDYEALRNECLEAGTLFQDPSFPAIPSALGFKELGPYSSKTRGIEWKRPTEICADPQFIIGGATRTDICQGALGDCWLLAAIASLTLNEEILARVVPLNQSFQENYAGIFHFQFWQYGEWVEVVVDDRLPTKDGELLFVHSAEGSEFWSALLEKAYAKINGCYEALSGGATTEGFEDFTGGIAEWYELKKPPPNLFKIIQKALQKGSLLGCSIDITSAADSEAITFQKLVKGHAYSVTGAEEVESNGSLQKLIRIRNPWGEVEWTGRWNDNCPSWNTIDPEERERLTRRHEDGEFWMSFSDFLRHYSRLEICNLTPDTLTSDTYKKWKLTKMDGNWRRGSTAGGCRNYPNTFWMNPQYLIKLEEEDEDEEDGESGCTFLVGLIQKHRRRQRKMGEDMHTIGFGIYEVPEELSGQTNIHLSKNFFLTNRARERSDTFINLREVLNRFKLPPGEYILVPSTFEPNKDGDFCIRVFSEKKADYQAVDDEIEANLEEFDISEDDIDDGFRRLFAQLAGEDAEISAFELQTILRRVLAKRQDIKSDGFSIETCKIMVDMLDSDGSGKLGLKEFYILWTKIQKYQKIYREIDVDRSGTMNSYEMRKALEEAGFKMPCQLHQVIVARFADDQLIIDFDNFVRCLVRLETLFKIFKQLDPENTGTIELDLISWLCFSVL
T2 sequence (P04632 1-268 partner): T1 sequence (P04632 1-268 partner)
As to the kind of experiment: Calpain inhibition continuous fluorescence (FRET) assay, Human Calpain 2/NS1. It counts as biochemical. Particulars: read-out: Human Calpain 2/NS1 IC50. In short, it runs like this:
as §1

The mark [5] stands for this setting: Column D, A23187-induced SBDP-150.
The mark [6] stands for this setting: A23187-induced SBDP-150, western blot.

As for `Cn1cc(C(=O)N[C@@H](Cc2ccccc2)C(=O)C(N)=O)c(-c2ccccc2)n1` [Compound 32, (S)—N-(4-amino-3,4-dioxo-1-phenylbutan-2-yl)-1-methyl-3-phenyl-1H-pyrazole-4-carboxamide], the IC50 in assay [1] (Column A) was < 3 µM; in assay [2] (Column E) it was > 25 µM; in assay [3] (setting [5]) it was < 10 µM; in assay [4] (Column B), < 3 µM.

For `NC(=O)C(=O)[C@H](Cc1ccccc1)NC(=O)c1snnc1-c1ccccc1` [Compound 44, (S)—N-(4-amino-3,4-dioxo-1-phenylbutan-2-yl)-4-phenyl-1,2,3-thiadiazole-5-carboxamide], the IC50 in assay [1] (Column A) is < 3 µM; in assay [2] (Column E), > 25 µM; in assay [3] (setting [5]), 10 to 25 µM; in assay [4] (Column B), < 3 µM.

With `NC(=O)C(=O)[C@H](Cc1ccccc1)NC(=O)c1cnoc1-c1ccccc1` [Compound 60, (S)—N-(4-amino-3,4-dioxo-1-phenylbutan-2-yl)-5-phenylisoxazole-4-carboxamide], the IC50 is < 3 µM in assay [1] (Column A), < 10 µM in assay [2] (Column E), < 10 µM in assay [3] (setting [5]) and < 3 µM in assay [4] (Column B).

Consider `NC(=O)C(=O)[C@H](Cc1ccccc1)NC(=O)c1nsnc1-c1ccccc1` [Compound 72, (S)—N-(4-amino-3,4-dioxo-1-phenylbutan-2-yl)-4-phenyl-1,2,5-thiadiazole-3-carboxamide], for which the IC50 is < 3 µM in assay [1] (Column A), < 10 µM in assay [2] (Column E), < 10 µM in assay [3] (setting [5]) and < 3 µM in assay [4] (Column B).

With `NC(=O)C(=O)[C@H](Cc1ccccc1)NC(=O)c1cn(C2CC2)nc1-c1ccccc1` [Compound 250, (S)—N-(4-amino-3,4-dioxo-1-phenylbutan-2-yl)-1-cyclopropyl-3-phenyl-1H-pyrazole-4-carboxamide], the IC50 in assay [1] (Column A) was < 3 µM; in assay [2] (Column E) it was 10 to 25 µM; in assay [3] (setting [5]), 10 to 25 µM; in assay [4] (Column B), < 3 µM.

On to `CCCC[C@H](NC(=O)c1oc(C)nc1-c1ccccc1)C(=O)C(N)=O` [Compound 265, (S)—N-(1-amino-1,2-dioxoheptan-3-yl)-2-methyl-4-phenyloxazole-5-carboxamide], for which the IC50 in assay [1] (Column A) was < 3 µM; in assay [2] (Column E), > 25 µM; in assay [3] (setting [5]), < 10 µM; in assay [4] (Column B) it was < 3 µM.

For the molecule `Cc1nc(-c2ccccc2)c(C(=O)NC(Cc2ccccc2)C(=O)C(N)=O)o1` (stereo not drawn) [Compound 357, N-(4-amino-3,4-dioxo-1-phenylbutan-2-yl)-2-methyl-4-phenyloxazole-5-carboxamide], the IC50 in assay [1] was < 3 µM; in assay [2] it was < 10 µM; in assay [3] (setting [6]), < 10 µM; in assay [4] it was < 3 µM.

As to `NC(=O)C(=O)C(Cc1ccccc1)NC(=O)c1cn(C(F)F)nc1-c1ccccc1` (stereo not drawn) [Compound 403, N-(4-amino-3,4-dioxo-1-phenylbutan-2-yl)-1-(difluoromethyl)-3-phenyl-1H-pyrazole-4-carboxamide], the IC50 in assay [1] is < 3 µM; in assay [2], < 10 µM; in assay [3] (setting [6]), < 10 µM; in assay [4], < 3 µM.

Regarding `Cc1nc(-c2cccc(F)c2)c(C(=O)NC(Cc2ccccc2)C(=O)C(N)=O)o1` (stereo not drawn) [Compound 404, N-(4-amino-3,4-dioxo-1-phenylbutan-2-yl)-4-(3-fluorophenyl)-2-methyloxazole-5-carboxamide], the IC50 in assay [1] is < 3 µM; in assay [2], < 10 µM; in assay [3] (setting [6]) it was < 10 µM; in assay [4] it was < 3 µM.

With `Cc1nc(-c2ccccc2F)c(C(=O)NC(Cc2ccccc2)C(=O)C(N)=O)o1` (stereo not drawn) [Compound 405, N-(4-amino-3,4-dioxo-1-phenylbutan-2-yl)-4-(2-fluorophenyl)-2-methyloxazole-5-carboxamide], the IC50 in assay [1] and in assay [4] was < 3 µM throughout.

For `NC(=O)C(=O)C(Cc1ccccc1)NC(=O)c1cn(C2CC2)nc1-c1ccccc1` (stereo not drawn) [Compound 406, N-(4-amino-3,4-dioxo-1-phenylbutan-2-yl)-1-cyclopropyl-3-phenyl-1H-pyrazole-4-carboxamide], the IC50 in assay [1] is < 3 µM; in assay [2], < 10 µM; in assay [3] (setting [6]), 10 to 25 µM; in assay [4] it was < 3 µM.

`Cn1cc(C(=O)NC(Cc2ccccc2)C(=O)C(N)=O)c(-c2ccccc2F)n1` (stereo not drawn) [Compound 484, N-(4-amino-3,4-dioxo-1-phenylbutan-2-yl)-3-(2-fluorophenyl)-1-methyl-1H-pyrazole-4-carboxamide]: the IC50 in assay [1] is < 3 µM; in assay [2], < 10 µM; in assay [3] (setting [6]), 10 to 25 µM; in assay [4] it was < 3 µM.

As for `Cl.Cn1cc(C(=O)NC(Cc2ccccc2)C(=O)C(N)=O)c(-c2cccc(F)c2)n1` (stereo not drawn) [Compound 485, N-(4-amino-3,4-dioxo-1-phenylbutan-2-yl)-3-(3-fluorophenyl)-1-methyl-1H-pyrazole-4-carboxamide hydrochloride], the IC50 in assay [1] is < 3 µM; in assay [2], 10 to 25 µM; in assay [3] (setting [6]) it was 10 to 25 µM; in assay [4], < 3 µM.

As for `Cc1cc(C(=O)NC(Cc2ccccc2)C(=O)C(N)=O)n(-c2ccccn2)n1` (stereo not drawn) [Compound 495, N-(4-amino-3,4-dioxo-1-phenylbutan-2-yl)-3-methyl-1-(pyridin-2-yl)-1H-pyrazole-5-carboxamide], the IC50 was < 3 µM in assay [1], < 10 µM in assay [2], 10 to 25 µM in assay [3] (setting [6]) and < 3 µM in assay [4].
